Source: patent US4689331A, “Substituted 2-pyridinyl benzimidazoles, and their use for inhibiting gastric acid secretion” (priority 1984, dated 1987)

Tests used:
gastric H^+,K^+ -ATPase = target: T1, gastric H^+,K^+ -ATPase (Sus scrofa, UniProt P19156); test: In vitro inhibition of gastric H+,K+-ATPase; format: biochemical; settings: hog gastric membrane, pH 7.4, 30 min incubation, negative log of concentration (M) giving 50% inhibition
T1 construct: from tissue; host or cells: hog stomach, purified membrane fraction (GI fraction of Saccomani et al. 1977)
Procedure: I. In vitro inhibition of gastric H^+,K^+ -ATPase
Hog gastric H^+,K^+ -ATPase was purified according to Saccomani et al., Biochim. Biophys. Acta 465, 311-330, 1977. 10 μg of membrane protein (GI-fraction in the reference listed above) was incubated with 2 mmol/l of piperazine-N,N'bis-(2-ethane sulfonic acid) buffer pH 7.4 and the test compound in concentrations 10^-7 -10^-4 M in a final volume of 1 ml. (The test compound was dissolved in methanol. Aliquots of these stock solutions were diluted to a final methanol concentration below 1%, which on its own had no effect on the enzyme activities.) After 30 minutes of incubation, the remaining H^+,K^+ -ATPase activity was determined, according to Wallmark et al., Biochim. Biophys. Acta, 728, 31-38, 1983. A dose-response curve was constructed and the concentration at half-maximal inhibition (IC50) could be determined.
pIC50 is the negative logarithm of the concentration (in M) of the test compound giving 50% inhibition.

[1] = tested on: ethanol-induced gastric lesions; test: In vivo cytoprotective effect: effect on ethanol-induced gastric lesions in the rat; set-up: species or system rat (female Spraque-Dawley); settings: oral, 30 min before 1 ml absolute ethanol, dose giving 50% reduction of total lesion length vs control (11.0 cm); for ED50: Rattus norvegicus, read-out: III Rat Cytoprot. ED50
Procedure: III. In vivo cytoprotective effect: Effect on ethanol-induced gastric lesions in the rat
Two groups of female Spraque-Dawley rats (190-220 g) were used, one for the test compound and one for the control experiment. Food, but not water, was removed 24 h before the experiments.
The animals in the test group were treated orally with the test compound dissolved in 10% ethanol in 0.5% Methocel® immediately before use and the animals in the control group were given the vehicle only in a dose of 2.5 ml/kg.
Thirty minutes later the rats were given orally 1 ml of absolute ethanol (a standard agent for inducing gastric mucosal lesions).
Sixty minutes later the rats were killed by carbon dioxide asphyxiation, their stomachs dissected out and the gastric mucosae were examined for the presence of necrotic lesions. The total lengths of the lesions in the stomachs were measured in the test group and in the control group, in both cases treated thirty minutes before with ethanol.
The ED50 -value represents the dose of the compound giving 50% reduction of the total lengths of lesions compared to the total lengths of lesions of the control experiment (11.0 cm).

gastric acid secretion = test: Inhibiting effect in vivo on gastric acid secretion in conscious dog; settings: conscious chronic gastric fistula dog, oral by stomach tube, histamine-induced secretion, 1 h after dosing, peak inhibitory effect
Procedure: II. Inhibiting effect in vivo on gastric acid secretion in conscious dog
Chronic gastric fistula dogs were used. These dogs have been surgically provided with a gastric cannula in the stomach and a duodenal fistula used for direct intraduodenal administration of test compounds. Following a 4 week's recovery period after surgery, tests were performed once a week on each dog. Food and water were withdrawn 18 hours before each test.
The test compound dissolved in 5% ethanol in 0.5% Methocel® (90 HG, 15.000, Dow Chem Corp.) was administered orally by using a stomach tube. After 1 hour gastric acid secretion was induced by continuous infusion of histamine at individual doses (400-600 nmol/kg, h), resulting in approx. 90% of maximal secretion of gastric acid. The gastric juice was collected by free flow from the gastric cannula in consecutive 30 minutes samples for 2 hours. The samples were titrated to pH 7.0 with 0.1M NaOH using a Radiometer automatic titrator and the acid output was calculated. The percent inhibition of acid secretion was calculated by comparing in each dog the acid output in the test to the acid output in control tests when only the vehicle was given. The peak inhibitory effect for each compound was determined.

T1 sequence (P19156 2-1034 limits assumed): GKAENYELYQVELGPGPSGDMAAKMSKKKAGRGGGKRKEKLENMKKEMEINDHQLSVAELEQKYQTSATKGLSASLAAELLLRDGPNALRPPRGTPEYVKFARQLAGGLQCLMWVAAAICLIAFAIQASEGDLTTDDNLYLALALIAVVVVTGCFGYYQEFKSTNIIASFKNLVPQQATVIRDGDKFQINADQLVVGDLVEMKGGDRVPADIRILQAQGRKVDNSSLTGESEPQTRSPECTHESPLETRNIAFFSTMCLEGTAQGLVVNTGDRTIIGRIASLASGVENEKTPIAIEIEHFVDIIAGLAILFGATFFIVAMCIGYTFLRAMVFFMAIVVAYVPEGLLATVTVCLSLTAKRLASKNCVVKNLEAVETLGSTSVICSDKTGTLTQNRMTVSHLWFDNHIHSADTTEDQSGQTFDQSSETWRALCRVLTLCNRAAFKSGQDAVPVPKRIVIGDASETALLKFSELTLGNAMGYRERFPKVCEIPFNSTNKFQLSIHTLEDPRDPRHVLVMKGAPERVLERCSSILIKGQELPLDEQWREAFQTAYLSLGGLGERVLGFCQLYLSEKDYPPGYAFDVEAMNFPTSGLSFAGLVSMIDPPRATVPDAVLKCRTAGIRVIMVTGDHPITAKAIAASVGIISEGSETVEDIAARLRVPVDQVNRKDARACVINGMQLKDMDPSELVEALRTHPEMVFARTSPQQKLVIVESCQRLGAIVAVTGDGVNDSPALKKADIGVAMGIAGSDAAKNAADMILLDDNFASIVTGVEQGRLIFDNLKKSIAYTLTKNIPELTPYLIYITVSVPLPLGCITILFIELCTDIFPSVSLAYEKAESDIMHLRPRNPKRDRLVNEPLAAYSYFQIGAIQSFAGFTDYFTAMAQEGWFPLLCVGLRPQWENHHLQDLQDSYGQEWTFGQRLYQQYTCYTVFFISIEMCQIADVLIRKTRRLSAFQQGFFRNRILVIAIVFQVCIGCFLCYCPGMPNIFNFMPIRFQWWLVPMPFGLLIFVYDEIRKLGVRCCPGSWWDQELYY
T1 sequence (P18434 whole entry partner): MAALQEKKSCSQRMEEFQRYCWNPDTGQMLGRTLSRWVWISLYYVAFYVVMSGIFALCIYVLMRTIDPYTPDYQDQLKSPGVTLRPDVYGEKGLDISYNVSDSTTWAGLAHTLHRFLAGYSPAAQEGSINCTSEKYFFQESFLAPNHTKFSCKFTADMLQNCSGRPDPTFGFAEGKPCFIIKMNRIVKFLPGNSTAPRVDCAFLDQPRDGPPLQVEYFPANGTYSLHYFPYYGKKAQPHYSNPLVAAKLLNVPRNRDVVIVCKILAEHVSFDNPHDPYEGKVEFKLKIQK

| SMILES | I Enzyme pIC50 (gastric H^+,K^+ -ATPase) | III Rat Cytoprot. ED50 [1] [µmol/kg] | II Dog Gast. acid secr. inhib. ED50 (gastric acid secretion) [µmol/kg] | IC50 (gastric H^+,K^+ -ATPase; read-out: I Enzyme pIC50 (converted)) [M] | ED50 [1] [µmol/kg] | ED50 (gastric acid secretion; Canis lupus familiaris, read-out: II Dog Gast. acid secr. inhib. ED50) [µmol/kg] |
| --- | --- | --- | --- | --- | --- | --- |
| COc1ccc2[nH]c(-[n+]3cc(C)c(OC)c(C)c3CSSCCO)nc2c1.[O-][Cl+3]([O-])([O-])[O-] [Example 1, 3,5-dimethyl-4-methoxy-2-[(2-hydroxyethyl)dithiomethyl]-1-(5-methoxy-2-benzimidazolyl)-pyridiniumperchlorate] | 5.0 | 15 | 6 |  |  |  |
| COc1ccc2[n-]c(-[n+]3cc(C)c(OC)c(C)c3CSSCC(=O)O)nc2c1 [Example 7] |  |  |  | 3.16e-05 | 30 |  |
| COc1c(C)c[n+](-c2nc3ccccc3[n-]2)c(CSC#N)c1C [Example 14] |  |  |  |  | 20 | 9 |
